# Laboratory results taken from patent US5837282A, “Ionophore-mediated liposome loading” (priority 1996, dated 1998).
# Like-named read-outs stand apart in the source and are kept apart here.
# Tests used:
# [1] = Drug uptake/leakage after removal of nigericin (spin column, dialysis)
# Description: Uptake was monitored for LUVs containing 300 mM K2 SO4 at a nigericin concentration of 1 ng/μmol lipid (.box-solid.), and for LUVs which were preincubated with nigericin for 5 min at 60° C., and then passed down a spin column prior to addition of the drug (.circle-solid.).
# Thus, an aliquot of nigericin (1 ng NIG/μmol lipid) was added to a sample of SPM/Chol LUVs containing 300 mm KH2 PO4 and the temperature was increased to 60° C. for 5 min to ensure association of nigericin with the lipid. The sample was then exhaustively dialysed at room temperature against 300 mM sucrose for 20 hours, following which an aliquot was passed down a spin column prior to drug loading with VINC (FIG. 10B).
# To ensure that such was not the case, control uptake experiments were performed on LUVs containing ethylammonium sulfate and amylammonium sulfate which were subjected to the same conditions.
# [2] = literature; cited from earlier work
# [3] = In vitro drug leakage from LUVs in 50% mouse serum at 37 °C; assay type: in vitro ADME; settings: SPM/Chol LUVs
# Description: In this assay, equal volumes of the liposomal drug formulation and of mouse serum are combined in a test tube and incubated at 37° C. Leakage of the drug from the LUVs is assayed by removal of aliquots for spin column analysis.
# An in vitro leakage assay has been designed which employs mouse serum to assess the relative retentive properties of the various liposomal systems. The assay is extremely simple, involving the incubation of equal volumes of mouse serum and LUV (loaded with drug) at 37° C., followed by the application of aliquots to spin columns to quantitate the change in D/L ratio with time.
# [4] = Vincristine uptake (loading) into LUVs using A23187 / Mn2+ systems; assay type: physicochemical; settings: SPM/Chol LUVs, 300 mM MnSO4, 60 °C; for %-uptake / Retention: D/L 0.05, A23187 0.1 μg/μmol lipid
# Description: (§1) [^14 C]CIPRO was diluted with cold CIPRO and the specific activity was determined by liquid scintillation counting and absorbance spectroscopy. […] For experiments involving [^14 C]CIPRO, the lipid mixtures were labeled using trace amounts of [^3 H]CHE. For [^3 H]VINC uptake the lipid was labeled with [^14 C]CHE. Lipid specific activities were determined by liquid scintillation counting and by quantification of phospholipid via phosphate assays.
# Excellent uptake and retention of VINC can also be obtained using Mn^2+ /A23187 with SPM/Chol LUVs (see FIG. 8). Less than 5% uptake was observed when there was no EDTA present in the external medium of Hepes-buffered sucrose (pH 7.5). […] However, extremely poor uptake (40%) is observed at lower external pHs when using 300 mM sucrose 3 mM EDTA.
# [5] = Vincristine uptake (loading) into LUVs using nigericin/K+ systems; assay type: physicochemical; settings: 60 °C
# Description: as §1
# As with CIPRO, no uptake was observed prior to the addition of nigericin (arrow). […] A further improvement was obtained (93-95%) for LUVs prepared in 300 mM K2 SO4 pH 7.4 with an external pH of 6 (either 20 mM HEPES 300 mM sucrose or 20 mM MES 300 mM sucrose) (see FIG. 9B).
# [6] = Transmembrane ΔpH measured with [14C]methylamine after vincristine uptake; assay type: physicochemical; settings: DSPC/Chol LUVs; 300 mM K2-tartrate pH 7.4; nigericin 1 ng/μmol lipid; external HEPES-buffered sucrose pH 5.3-6.3
# Description: Uptake of VINC in response to transmembrane gradients of K2 -tartrate has also been investigated in DSPC/Chol LUVs (Table 2). […] The ionophore concentration was 1 ng NIG/μmol lipid.
# in vivo = settings: mouse, iv; for half-life: 2 mg/kg
# Description: Lipid was measured using [^14 C]cholesteryl hexadecyl ether as a tracer. The %-retention is defined as the D/L ratio at time t divided by the initial measured drug to lipid ratio.
# SPM/Chol vesicles (100 nm) were used (55:45; mole %). The vesicles were prepared in a 300 mM K2 SO4 solution or 300 mM MnSO4 and the external medium was exchanged with 300 mM sucrose, 20 mM HEPES, pH 7.0 by overnight dialysis. […] Uptake of the drug was accomplished in the following manner: to an aliquot of liposomes was added either nigericin (1 ng per μmol of lipid) or A23187 (0.1 ,μg/μmol lipid) along with an appropriate amount of drug. For the A23187 experiments, EDTA was present in the external medium at 30 mM.
# Each mouse was injected via a lateral tail vein with 200 μL total volume. […] At varying time points, mice were anaesthetized and blood was collected via cardiac puncture. Blood was immediately centrifuged at 500 g and plasma was collected for lipid and drug determination.
# Each drug was loaded using several methods, and was injected at time 0 into mice. At the indicated times, samples were withdrawn and the D/L ratio of the recovered LUVs was determined.
# [7] = Pressman, cited from earlier work
# [8] = large Mn2+ gradient still present; Erdahl et al.; cited from earlier work
# [9] = Fluorimetric determination of A23187 in a liposomal formulation; assay type: physicochemical; settings: for Amount of A23187 measured: no removal; for remaining A23187 concentration: initial 500 ng
# Description: The quantity of A23187 in SPM/Chol LUVs was determined by measuring the fluorescence intensity of the ionophore at an emission wavelength of 437 nm following solubilization of the liposomal formulation and complexation of the released divalent cations. Briefly, an aliquot of LUV/A23187 (corresponding to 5 μmol total lipid) was combined with a 333 mM EDTA solution (3 μL) and the volume was made up to 1 mL with ethanol:methanol (70:30 v:v). The sample was vortexed until clear, and the fluorescence intensity was measured. Calibration standards were prepared by the addition of known aliquots of A23187 to a 1 mL solution consisting of ethanol:methanol (70:30 v:v) and containing 5 mM total lipid.
# As mentioned above, the concentration of A23187 in LUVs can be quantitated using a fluorimetric assay which allows determination of the amount remaining following various purification procedures. The results are given in Table 5 for SPM/Chol LUVs initially containing A23187 at a concentration of 0.1 μg/μmol lipid. For sample 1 (S1), 146 ng of A23187 was added to the LUVs, and 123 ng was measured by the assay.
# [10] = Deamer et al.; cited from earlier work
# [11] = external 300 mM sucrose + 3 mM EDTA
# [12] = SPM/Chol LUVs, 300 mM KH2PO4, D/L 0.05 wt:wt, nigericin 1 ng/μmol lipid, external 300 mM sucrose
compound,measurement,setting,value
"O=C(O)c1cn(C2CC2)c2cc(N3CCNCC3)c(F)cc2c1=O [Ciprofloxacin, ciprofloxacin]",entrapment,"[1]; SPM/Chol LUVs, 300 mM K2SO4, nigericin 1 ng/μmol lipid and drug added at same time, D/L 0.2, 60 °C, within 30 min",80%
same,"in vitro leakage rates, normal versus nigericin-reduced LUVs",[1]; not shown,identical
COc1cccc2c1C(=O)c1c(O)c3c(c(O)c1C2=O)C[C@@](O)(C(=O)CO)C[C@@H]3O[C@H]1C[C@H](N)[C@H](O)[C@H](C)O1 [doxorubicin],effect of encapsulation on drug toxicity (particularly acute cardiotoxicity),[2],can decrease drug toxicity
same,efficacy in liposomally-encapsulated formulations,[2],equal or increased efficacy
same,toxicity in liposomally-encapsulated formulations,[2],significantly reduced toxicity
amylammonium sulfate,encapsulation in control LUVs containing amine salt subjected to the same dialysis,"[1]; control LUVs, same dialysis conditions",80-95%
"CC[C@]1(O)C[C@H]2CN(CCc3c([nH]c4ccccc34)[C@@](C(=O)OC)(c3cc4c(cc3OC)N(C=O)[C@H]3[C@@](O)(C(=O)OC)[C@H](OC(C)=O)[C@]5(CC)C=CCN6CC[C@]43[C@@H]65)C2)C1 [Vincristine, vincristine]",efficacy in liposomally-encapsulated formulations,[2],equal or increased efficacy
same,toxicity in liposomally-encapsulated formulations,[2],significantly reduced toxicity
same,"retention in mouse serum, K+/nigericin with phosphate or tartrate salts, or sulfate salts with external pH of 6",[3],better retention
same,"retention of drug in mouse serum, Mn2+/A23187 versus K+/nigericin system",[3],better retention
same,"retention in mouse serum, Mn2+/A23187 versus LUVs loaded using methylammonium sulfate",[3]; results not shown,similar
same,uptake,"[4]; A23187, external Hepes-buffered sucrose pH 7.5, no EDTA",Less than 5%
same,%-uptake,[4]; [11],40%
same,Retention,[4]; [11],excellent
same,Retention,[4]; external 300 mM sucrose + 20 mM HEPES 3 mM EDTA pH 7.5,excellent
same,%-uptake,[4]; external 300 mM sucrose + 20 mM HEPES 3 mM EDTA pH 7.5 (text: within one hour),> 95%
same,%-uptake,"[4]; external 300 mM sucrose + 20 mM HEPES 3 mM EDTA pH 7.5 (text: within one hour), listed as VINC",over 95%
same,Retention,"[4]; external 300 mM sucrose + 20 mM HEPES 3 mM EDTA pH 7.5, listed as VINC",Excellent
same,%-uptake,"[4]; external 300 mM sucrose, no EDTA",5%
same,Retention,"[5]; DSPC/Chol LUVs, 300 mM K2-tartrate pH 7.4, D/L 0.05 wt:wt, nigericin 1 ng/μmol lipid, external 300 mM sucrose + 20 mM HEPES pH 5.3-6.3",excellent
same,%-uptake,"[5]; DSPC/Chol LUVs, 300 mM K2-tartrate pH 7.4, D/L 0.05 wt:wt, nigericin 1 ng/μmol lipid, external 300 mM sucrose + 20 mM HEPES pH 5.3-6.3 (text: within 15 min)",85-90%
same,%-uptake,"[5]; SPM/Chol LUVs, 300 mM K2-tartrate pH 7.4, D/L 0.05 wt:wt, nigericin 1 ng/μmol lipid, external 300 mM sucrose + 20 mM MES pH 6.0",70%
same,%-uptake,"[5]; SPM/Chol LUVs, 300 mM K2HPO4, D/L 0.05 wt:wt, nigericin 1 ng/μmol lipid, external 300 mM sucrose",< 5%
same,uptake prior to the addition of nigericin,"[5]; SPM/Chol LUVs, 300 mM K2SO4",no uptake
same,Retention,"[5]; SPM/Chol LUVs, 300 mM K2SO4, external 300 mM sucrose",excellent retention
same,Retention,"[5]; SPM/Chol LUVs, 300 mM K2SO4, external HEPES-buffered sucrose pH 7.5, over 75 minutes",poor retention
same,encapsulation,"[5]; SPM/Chol LUVs, 300 mM K2SO4, nigericin 1 ng/μmol lipid, external 300 mM sucrose",~90%
same,uptake,"[5]; SPM/Chol LUVs, 300 mM K2SO4, nigericin 1 ng/μmol lipid, external HEPES-buffered sucrose pH 7.5",60%
same,%-uptake,"[5]; SPM/Chol LUVs, 300 mM K2SO4 pH 7.4, D/L 0.05 wt:wt, nigericin 1 ng/μmol lipid, external 300 mM sucrose + 20 mM HEPES or MES pH 6.0",92%
same,%-uptake,"[5]; SPM/Chol LUVs, 300 mM K2SO4 pH 7.4, D/L 0.05 wt:wt, nigericin 1 ng/μmol lipid, external 300 mM sucrose + 20 mM HEPES or MES pH 6.0, listed as VINC",93-95%
same,%-uptake,[5]; [12],80%
same,Retention,[5]; [12],excellent
same,ΔpH present following drug uptake,[6],2.3
same,uptake after 20 h dialysis and spin column,"[1]; SPM/Chol LUVs, 300 mM KH2PO4 (printed 300 mm), nigericin 1 ng/μmol lipid, at 1 hr",60%
same,factor by which drug leakage half-lives differ (citrate vs A23187),in vivo,two
same,half-life,in vivo,6 h
same,half-life,in vivo; pH 4,8.5 h
same,"in vivo retention, A23187 versus 300 mM citrate pH 4.0",in vivo; pH 4,comparable
CNc1ccc2oc(C[C@H]3O[C@@]4(CC[C@H]3C)O[C@H]([C@H](C)C(=O)c3ccc[nH]3)[C@H](C)C[C@H]4C)nc2c1C(=O)O [A23187],relative binding affinity,"[7]; Ca2+, relative to Mn2+ and Mg2+ (210:2.6:1)",2.6
same,relative binding affinity,"[7]; Mg2+, relative to Mn2+ and Ca2+ (210:2.6:1)",1
same,relative binding affinity,"[7]; Mn2+, relative to Ca2+ and Mg2+ (210:2.6:1)",210
same,divalent cation transport specificity,[7],Mn^2+ >Ca^2+ >Mg^2+
same,fraction of entrapped Mn2+ released from POPC vesicles,[8],< 1/2
same,Amount of A23187 measured,"[9]; S1, initial amount 146 ng, SPM/Chol LUVs",123 ng
same,remaining A23187 level,"[9]; S2, Sephadex G-50 column eluted with 300 mM sucrose, initial 109 ng",below background
same,remaining A23187 concentration,"[9]; S3, dialysis against 300 mM sucrose",below background levels
same,Amount of A23187 measured,"[9]; S4 + 45 ng A23187, initial amount 45 ng",41 ng
same,Amount of A23187 measured,"[9]; S4 + 90 ng A23187, initial amount 90 ng",94 ng
same,remaining A23187 concentration,"[9]; S4, SM-2 biobeads",below background levels
"CO[C@@H]1C[C@@H](C[C@H]2CC[C@H](C)[C@H]([C@@H](C)C(=O)O)O2)O[C@]2(O[C@](C)([C@H]3CC[C@@](C)([C@@H]4O[C@@H]([C@H]5O[C@@](O)(CO)[C@H](C)C[C@@H]5C)C[C@@H]4C)O3)C[C@H]2C)[C@@H]1C [Nigericin, nigericin]",pH gradient formed across sonicated vesicle membranes,[10],2.2 units
